# According to patent US11325899B2, “Benzofurane and benzothiophene derivatives as PGE2 receptor modulators” (IDORSIA PHARMACEUTICALS LTD, priority 2017, dated 2022):
# What was measured:
# Assay type in all cases: cell-based
# PTGER2 (EP2) = biological target: T1, PTGER2 (EP2) (Homo sapiens, UniProt P43116); test: hEP2 b-arrestin assay (PathHunter HEK 293 PTGER2 b-arrestin cells); details: antagonistic activity, beta-arrestin assay; read-out: hEP2 b-arr IC50
# T1 construct: host or cells: HEK 293 (PathHunter PTGER2 b-arrestin cell line)
# How it was run: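 Antagonism measured as inhibition of PGE2-driven β-arrestin 2 recruitment (enzyme fragment complementation, luminescence) in engineered HEK293 EP2 cells. Agonist: 5 μM PGE2, ~EC80, 120 min at 37 °C after 15 min compound preincubation; test range 10 μM-2 nM or 1 μM-0.2 nM, duplicates, IC50 fitted.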
# EP4 receptor = biological target: T2, EP4 receptor (Homo sapiens, UniProt P35408); test: hEP4 cAMP assay (BT549 breast cancer cells, HTRF cAMP, PGE2 stimulation); details: antagonistic activity, PGE2 6 nM (EC80)
# T2 construct: BT549 breast cancer cells, express high endogenous EP4 levels and very low EP2 levels; host or cells: BT549 breast cancer cells
# Method: (§1) The antagonistic activities of the compounds of formula (I) on the EP2 and EP4 receptors are also determined in accordance with the following experimental method.
# (§2) Human tumor cell lines expressing endogenously either EP4 or EP2 are used and cAMP accumulation in cells upon PGE2 stimulation is monitored. SF295 glioblastoma cells express high endogenous EP2 and no EP4, whereas BT549 breast cancer cells, express high endogenous EP4 levels and very low EP2 levels.
# (§3) As a detection method for cAMP the HTRF (homogeneous time resolved fluorescence) Cisbio kit (HTRF cAMP dynamic 2 kit 20′000 tests Cisbio Cat. #62AM4PEC) was used, which is based on a competitive immunoassay using a Cryptate-labeled anti-cAMP antibody and d2-labeled cAMP. Native cAMP produced by cells or unlabeled cAMP (for the standard curve) compete with exogenously added d2-labeled cAMP (acceptor) for binding to monoclonal anti-cAMP-Eu3+ Cryptate (donor). A FRET signal (Fluorescence Resonance Energy Transfer) is obtained only if the labeled anti-cAMP antibody binds the d2 labelled cAMP, thus the specific signal (i.e. energy transfer) is inversely proportional to the concentration of cAMP in the standard or sample.
# (§4) The BT549 cells (NCI/No. 0507282) are detached from culture dishes with a cell dissociation buffer (Invitrogen, 13151-014), and collected in growing medium (GM: RPMI1640 (Invitrogen 21875)/10% FCS, 1% Penicilin/streptomycin). Cells are counted washed and resuspended in assay buffer (AB; HBSS, 20 mM HEPES, 0.2% BSA; 2 mM IBMX). 4′000 cells in 5 μl of AB are seeded per well of a small volume 384 well plate (black with flat bottom, Greiner 784076).
# Stock solutions of test compounds are made at a concentration of 10 mM in DMSO, and serially diluted in DMSO to concentrations required for inhibition dose response curves (tested concentration range 30 μM-0.4 nM; 30 μM-0.015 nM or 1 uM-0.01 nM).
# PGE2 (Cayman 14010, stock solution: 6 μM in DMSO) is used as agonist at 6 nM final concentration, corresponding to EC80.
# (§5) Two point five microliters of diluted compounds are transferred into the assay plate. Plate is pre-incubated 45 minutes at room temperature. Subsequently, 2.5 microliters of PGE2 (final conc. 6 nM) are transferred into the assay plate. Plate is incubated 30 minutes at room temperature. Five μl of each donor (anti-cAMP cryptate) and acceptor (cAMP-d2) are added and the plate is incubated another hour at room temperature in the dark and then read using a BMG LABTECH PHERAstar reader (Excitation:337 nm, Emission:620 and 665 nm).
# (§6) The obtained Delta F(fluorescence) values (665 nm/620 nM) are converted into % cAMP values using the measurements of the cAMP calibrator provided in the kit. For each compound concentration the percentage of cAMP compared to DMSO control value as average±STDEV (each concentration is measured in duplicate) is calculated.
# (§7) IC50 values and curves are generated with XLfit software (IDBS) using Dose-Response One Site model 203. When compounds were measured multiple times, mean values are given.
# EP2 receptor = biological target: T3, EP2 receptor (Homo sapiens, UniProt P43116); test: hEP2 cAMP assay (SF295 glioblastoma cells, HTRF cAMP, PGE2 stimulation); details: antagonistic activity
# T3 construct: SF295 glioblastoma cells express high endogenous EP2 and no EP4; host or cells: SF295 glioblastoma cells
# Method: as §1, §2, §3
# as §4, with “SF295” for “BT549”, “0503170)” for “0507282)”, “RPM1640” for “RPMI1640”
# Stock solutions of test compounds are made at a concentration of 10 mM in DMSO, and serially diluted in DMSO to concentrations required for inhibition dose response curves (tested concentration range 30 μM-0.4 nM; 30 μM-0.015 nM or 1 μM-0.01 nM).
# PGE2 (Cayman 14010, stock solution: 75 μM in DMSO) is used as agonist at 75 nM final concentration, corresponding to EC80.
# as §5, with “conc. 75” for “conc. 6”, “reader (Excitation: 337” for “reader (Excitation:337”, “nm, Emission: 620” for “nm, Emission:620”
# as §6, with “F (fluorescence)” for “F(fluorescence)”
# as §7
# T3 sequence (P43116 whole entry): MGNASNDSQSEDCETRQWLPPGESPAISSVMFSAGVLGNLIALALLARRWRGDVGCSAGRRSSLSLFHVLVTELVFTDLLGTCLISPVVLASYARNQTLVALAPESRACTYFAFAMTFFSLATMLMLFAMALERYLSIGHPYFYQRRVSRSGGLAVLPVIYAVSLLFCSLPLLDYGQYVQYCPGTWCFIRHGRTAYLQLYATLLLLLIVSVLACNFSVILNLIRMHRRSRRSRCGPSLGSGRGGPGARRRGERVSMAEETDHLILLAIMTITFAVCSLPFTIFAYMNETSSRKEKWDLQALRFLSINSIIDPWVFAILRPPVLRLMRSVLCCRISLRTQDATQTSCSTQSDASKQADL
# T1 sequence (P43116 whole entry): as above
# T2 sequence (P35408 whole entry): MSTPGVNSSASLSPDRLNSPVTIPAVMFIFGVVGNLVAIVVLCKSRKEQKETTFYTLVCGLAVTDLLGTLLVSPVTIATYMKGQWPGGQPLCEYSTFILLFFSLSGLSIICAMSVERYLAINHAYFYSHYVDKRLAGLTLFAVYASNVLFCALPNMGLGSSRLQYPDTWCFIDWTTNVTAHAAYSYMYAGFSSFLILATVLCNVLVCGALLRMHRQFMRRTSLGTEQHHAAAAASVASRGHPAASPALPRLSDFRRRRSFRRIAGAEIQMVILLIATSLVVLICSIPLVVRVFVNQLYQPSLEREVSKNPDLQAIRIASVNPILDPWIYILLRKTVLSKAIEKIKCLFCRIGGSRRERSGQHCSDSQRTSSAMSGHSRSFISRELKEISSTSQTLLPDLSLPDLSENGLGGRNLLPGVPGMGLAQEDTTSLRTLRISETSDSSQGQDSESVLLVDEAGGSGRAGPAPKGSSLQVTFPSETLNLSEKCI
Structure (SMILES),IC50 (PTGER2 (EP2)) [nM],IC50 (EP4 receptor) [nM],IC50 (EP2 receptor) [nM]
"Cc1sc2c(C)cc(F)cc2c1CCNc1cc(-c2cc3ccc(C(=O)O)cc3[nH]2)ncn1 [Example 80, 2-{6-[2-(5-Fluoro-2,7-dimethyl-benzo[b]thiophen-3-yl)-ethylamino]-pyrimidin-4-yl}-1H-indole-6-carboxylic acid]",13,306,20
"CCCc1cc(-c2cc(NCCc3c(C)sc4c(C)cc(F)cc34)ncn2)cc(F)c1C(=O)O [Example 93, 2-Fluoro-4-{6-[2-(5-fluoro-2,7-dimethyl-benzo[b]thiophen-3-yl)-ethylamino]-pyrimidin-4-yl}-6-propyl-benzoic acid]",36,362,35
"Cc1sc2c(C)cc(F)cc2c1CCNc1cc(-c2ccc(C(=O)O)c(CC(C)C)c2)ncn1 [Example 94, 4-{6-[2-(5-Fluoro-2,7-dimethyl-benzo[b]thiophen-3-yl)-ethylamino]-pyrimidin-4-yl}-2-isobutyl-benzoic acid]",45,302,92
"CCOc1cc(-c2cc(NCCc3c(C)oc4c(Cl)cccc34)ncn2)ccc1CC(=O)O [Example 108, (4-{6-[2-(7-Chloro-2-methyl-benzofuran-3-yl)-ethylamino]-pyrimidin-4-yl}-2-ethoxy-phenyl)-acetic acid]",31,264,107
"CCOc1cc(-c2cc(NCCc3c(C)oc4c(C)cc(F)cc34)ncn2)ccc1OCC(=O)O [Example 124, (2-Ethoxy-4-{6-[2-(5-fluoro-2,7-dimethyl-benzofuran-3-yl)-ethylamino]-pyrimidin-4-yl}-phenoxy)-acetic acid]",26,310,115
"CCOc1cc(-c2cc(NCCc3c(C)sc4c(C)cc(F)cc34)ncn2)ccc1NC(=O)C(=O)O [Example 145, N-(2-Ethoxy-4-{6-[2-(5-fluoro-2,7-dimethyl-benzo[b]thiophen-3-yl)-ethylamino]-pyrimidin-4-yl}-phenyl)-oxalamic acid]",13,271,76
